According to patent US20100210561A1, “USE OF PEPTIDE AS A THERAPEUTIC AGENT” (priority 2007, published 2010):
Where no end group is shown, it is not given here. [ ]: non-standard residue; d: D form. The star is where a group is joined. tBu = CC(C)(C)*

Key:
HUVEC = experiment: Endothelial tube formation assay; assay type: cell-based, human; settings: 10 micrograms per ml, 20 hours
Method: The endothelial tube formation assay is based on the ability of endothelial cells to form three-dimensional capillary-like tubular structures when cultured on a gel of basement membrane extract. […] Positive control was vehicle only. The endothelial cells were allowed to form tubes foe 20 hours and were then examined under an inverted fluorescent microscope. Duplicate wells for each treatment were photographed and quantitatevily analyzed for an average tubule length using image analysis software ImageProPlus. Raw data were expressed as average tubule lengths in pixels±standard deviation. Statistic p values were computed using the Student's t-test.

HCMV strain AD169 = experiment: HCMV plaque formation assay in MRC-5 cells; assay type: cell-based, human cytomegalovirus; settings: 10 micrograms per ml, 7-10 days
Interleukin-2 (IL-2) = experiment: Th1/Th2 cytokine profiling assay: IL-2; assay type: cell-based, Balb/c mice; settings: Ovalbumin-restimulated spleen cells, 72 hours
[1] = system: hepatitis B virus (HBV) ayw strain; experiment: HBV assay in HepG2-2.2.15 cells (secreted HBV DNA, TaqMan PCR); assay type: cell-based; settings: 10 micrograms per ml, six days, HBV DNA in supernatant
[2] = system: Tumor Necrosis Factor-α (TNF-α); experiment: Th1/Th2 cytokine profiling assay: TNF-α; assay type: cell-based, Balb/c mice; settings: Ovalbumin-restimulated spleen cells, 72 hours
Interferon-γ (IFN-γ) = experiment: Th1/Th2 cytokine profiling assay: IFN-γ; assay type: cell-based, Balb/c mice; settings: Ovalbumin-restimulated spleen cells, 72 hours
Interleukin-4 (IL-4) = experiment: Th1/Th2 cytokine profiling assay: IL-4; assay type: cell-based, Balb/c mice; settings: Ovalbumin-restimulated spleen cells, 72 hours
HIV-1IIIB = experiment: HIV-1 antiviral assay in CEM-SS cells (MTS readout); settings: positive controls

Molecule	inhibition of the tube formation of human endothelial cells (HUVEC)	inhibition of HCMV plaque formation as compared to the virus control experiment (HCMV strain AD169)	IL-2 spleen cells (% of control) (Interleukin-2 (IL-2))	induction of the production of IL-2 in murine spleen cells (Interleukin-2 (IL-2))	inhibition of HBV replication as compared to the virus control infection [1]	TNF-a spleen cells; TH1 response (% of control) [2]	induction of the production of TNF-alpha in murine spleen cells [2]	IFNγ spleen cells; TH1 response (% of control) (Interferon-γ (IFN-γ))	induction of the production of IFN-γ in murine spleen cells (Interferon-γ (IFN-γ))	IL-4 spleen cells; TH2 response (% of control) (Interleukin-4 (IL-4))	decrease of the production of IL-4 in murine spleen cells (Interleukin-4 (IL-4))	antiviral activity of positive control compounds (HIV-1IIIB)
Y[dC](tBu)GFLT(tBu)-OH [Peptide 1]	4%	46.5%	115.0 % of control	did not significantly change	24.2%	123.7 % of control	23.7%	107.6 % of control	did not significantly change	65.0 % of control	35.0%	–
Cc1cn([C@H]2C[C@H](N=[N+]=[N-])[C@@H](CO)O2)c(=O)[nH]c1=O [AZT]	–	–	–	–	–	–	–	–	–	–	–	expected levels of antiviral activity
CC(C)(C)NC(=O)[C@@H]1CN(Cc2cccnc2)CCN1C[C@@H](O)C[C@@H](Cc1ccccc1)C(=O)N[C@H]1c2ccccc2C[C@H]1O [indinavir]	–	–	–	–	–	–	–	–	–	–	–	expected levels of antiviral activity
